Laboratory results from ChEMBL document CHEMBL1201862, “PubChem BioAssay data set” (2004).
Active and inactive are the calls of the source.

Tests used:
[1] = P. falciparum Dd2 growth inhibitors, dose response, SYBR Green, cherry-picked samples (AID 1159567); assay type: functional, cell-based
Streptococcus = test: Group A Streptococcus viability loss, dose response, counter-screen for streptokinase expression inhibitor project, luminescence, BacTiterGlo (AID 1915); assay type: functional, organism-based;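 note: potency for reduction of bacterial viability or growth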
[2] = HEp-2 cell cytotoxicity, dose response, cytotoxicity control for RSV inhibitor project, HTS (AID 2410); assay type: functional; details: human respiratory syncytial virus
[3] = test system: Streptococcus sp. 'group A'; test: growth inhibition of control SK(-) GAS strain, dose response, counter-screen for streptokinase expression inhibitor project, luminescence, kanamycin, BacTiterGlo, confirmation (AID 1900); assay type: functional, organism-based
Streptokinase A = molecular target: T1, Streptokinase A (Streptococcus pyogenes serotype M1, UniProt P10520); test: S. pyogenes streptokinase expression inhibitors, potency, dose response, plasminogen activation absorbance, OD405 (AID 1914); assay type: functional, Streptococcus pyogenes M1 GAS;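 note: secreted streptokinase activity via plasminogen activation per viability signal from cell pellet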
T1 sequence (P10520 whole entry): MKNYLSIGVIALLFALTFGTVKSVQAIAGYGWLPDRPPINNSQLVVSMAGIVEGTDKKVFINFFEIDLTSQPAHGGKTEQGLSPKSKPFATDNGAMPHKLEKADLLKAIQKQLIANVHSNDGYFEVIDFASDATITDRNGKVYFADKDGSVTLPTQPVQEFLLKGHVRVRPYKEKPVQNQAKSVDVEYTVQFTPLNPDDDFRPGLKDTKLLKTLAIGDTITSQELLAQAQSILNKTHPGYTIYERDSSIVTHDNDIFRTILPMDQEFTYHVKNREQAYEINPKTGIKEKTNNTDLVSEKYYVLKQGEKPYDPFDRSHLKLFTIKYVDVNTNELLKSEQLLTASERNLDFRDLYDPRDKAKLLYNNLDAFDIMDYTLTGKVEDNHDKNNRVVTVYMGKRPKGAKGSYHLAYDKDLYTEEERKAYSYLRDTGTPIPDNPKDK

Cytochrome P450 1A2 = molecular target: T2, Cytochrome P450 1A2 (Homo sapiens, UniProt P05177);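 note: PubChem cytochrome P450 panel assay, CYP1A2 panel member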
T2 sequence (P05177 whole entry): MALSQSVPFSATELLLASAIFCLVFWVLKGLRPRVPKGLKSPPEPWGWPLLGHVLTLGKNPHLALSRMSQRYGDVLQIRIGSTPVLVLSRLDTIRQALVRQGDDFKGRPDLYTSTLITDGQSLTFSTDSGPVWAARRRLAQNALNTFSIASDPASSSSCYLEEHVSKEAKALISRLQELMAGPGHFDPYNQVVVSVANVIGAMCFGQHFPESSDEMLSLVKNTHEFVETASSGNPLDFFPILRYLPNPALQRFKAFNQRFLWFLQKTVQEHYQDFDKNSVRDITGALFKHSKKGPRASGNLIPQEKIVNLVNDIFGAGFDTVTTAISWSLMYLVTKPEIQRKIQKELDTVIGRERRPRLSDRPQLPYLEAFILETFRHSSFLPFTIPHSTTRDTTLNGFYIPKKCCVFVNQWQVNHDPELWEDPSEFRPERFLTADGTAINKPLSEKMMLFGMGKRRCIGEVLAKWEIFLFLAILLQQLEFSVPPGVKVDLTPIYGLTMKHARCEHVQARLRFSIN

[4] = molecular target: T3, Rac GTPase-activating protein 1 (Homo sapiens, UniProt Q9H0H5); test: MgcRacGAP GTPase-activating activity inhibitors, confirmation, biochemical, ADP Hunter fluorescence, primary and confirmatory (AID 624330); assay type: functional
T3 sequence (Q9H0H5 whole entry): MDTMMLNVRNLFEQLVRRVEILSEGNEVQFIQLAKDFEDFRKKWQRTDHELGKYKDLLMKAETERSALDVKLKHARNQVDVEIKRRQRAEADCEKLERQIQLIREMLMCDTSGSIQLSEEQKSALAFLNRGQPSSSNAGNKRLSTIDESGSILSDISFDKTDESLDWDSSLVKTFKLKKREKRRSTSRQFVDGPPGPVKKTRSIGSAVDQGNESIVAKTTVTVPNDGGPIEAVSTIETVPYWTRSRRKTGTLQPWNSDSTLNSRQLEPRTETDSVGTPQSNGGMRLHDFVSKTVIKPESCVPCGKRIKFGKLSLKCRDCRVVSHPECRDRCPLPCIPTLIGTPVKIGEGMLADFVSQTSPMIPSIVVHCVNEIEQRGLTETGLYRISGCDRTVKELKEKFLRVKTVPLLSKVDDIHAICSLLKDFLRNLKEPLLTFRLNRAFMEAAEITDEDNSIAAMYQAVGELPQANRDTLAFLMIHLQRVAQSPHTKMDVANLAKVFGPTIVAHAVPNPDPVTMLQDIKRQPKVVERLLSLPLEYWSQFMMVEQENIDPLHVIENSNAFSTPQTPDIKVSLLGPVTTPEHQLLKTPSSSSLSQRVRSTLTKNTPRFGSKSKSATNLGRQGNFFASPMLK

[5] = molecular target: T4, Heat shock factor protein 1 (Mus musculus, UniProt P38532); test: HSF1 potentiators in luciferase reporter cells, confirmation, cell-based, NIH3T3, luminescence, dose retest (AID 435004); assay type: functional;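 note: stress induced by proteasome inhibitor MG132 added 30 min after compound; luciferase reporter driven by HSF1 response element in NIH3T3 cells; actives raise luminescence as potentiators of the MG132 stress response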
T4 sequence (P38532 whole entry): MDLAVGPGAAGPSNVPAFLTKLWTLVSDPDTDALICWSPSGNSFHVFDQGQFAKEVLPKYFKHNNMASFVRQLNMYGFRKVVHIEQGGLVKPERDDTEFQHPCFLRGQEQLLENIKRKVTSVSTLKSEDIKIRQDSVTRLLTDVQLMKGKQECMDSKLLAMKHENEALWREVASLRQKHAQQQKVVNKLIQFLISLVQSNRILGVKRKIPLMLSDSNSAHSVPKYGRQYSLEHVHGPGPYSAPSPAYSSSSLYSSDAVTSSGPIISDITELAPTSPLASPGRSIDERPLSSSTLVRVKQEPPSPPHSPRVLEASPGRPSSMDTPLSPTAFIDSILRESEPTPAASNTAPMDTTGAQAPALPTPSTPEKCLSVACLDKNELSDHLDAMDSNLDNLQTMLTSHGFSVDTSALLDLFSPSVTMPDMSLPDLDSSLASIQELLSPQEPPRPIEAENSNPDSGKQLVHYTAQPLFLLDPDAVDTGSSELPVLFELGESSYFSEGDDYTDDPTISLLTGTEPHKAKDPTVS

[6] = molecular target: T5, Corticotropin-releasing factor receptor 2/Corticotropin-releasing factor-binding protein (Homo sapiens, UniProt P24387+Q13324); test: Dose Response confirmation of uHTS hits for small molecule antagonists of the CRF-binding protein and CRF-R2 receptor complex.; assay type: functional; details: read-out: IC50_Mean
T5 sequence (Q13324 whole entry): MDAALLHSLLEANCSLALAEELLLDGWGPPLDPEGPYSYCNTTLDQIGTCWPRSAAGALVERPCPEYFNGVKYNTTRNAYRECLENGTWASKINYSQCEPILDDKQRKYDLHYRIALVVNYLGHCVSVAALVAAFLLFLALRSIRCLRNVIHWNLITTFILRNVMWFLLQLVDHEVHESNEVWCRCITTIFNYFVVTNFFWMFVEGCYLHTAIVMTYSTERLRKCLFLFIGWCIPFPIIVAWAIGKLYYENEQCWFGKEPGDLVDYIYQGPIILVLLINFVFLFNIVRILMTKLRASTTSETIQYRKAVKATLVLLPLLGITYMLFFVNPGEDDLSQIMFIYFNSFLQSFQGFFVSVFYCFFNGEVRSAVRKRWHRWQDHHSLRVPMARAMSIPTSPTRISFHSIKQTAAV
T5 sequence (P24387 whole entry): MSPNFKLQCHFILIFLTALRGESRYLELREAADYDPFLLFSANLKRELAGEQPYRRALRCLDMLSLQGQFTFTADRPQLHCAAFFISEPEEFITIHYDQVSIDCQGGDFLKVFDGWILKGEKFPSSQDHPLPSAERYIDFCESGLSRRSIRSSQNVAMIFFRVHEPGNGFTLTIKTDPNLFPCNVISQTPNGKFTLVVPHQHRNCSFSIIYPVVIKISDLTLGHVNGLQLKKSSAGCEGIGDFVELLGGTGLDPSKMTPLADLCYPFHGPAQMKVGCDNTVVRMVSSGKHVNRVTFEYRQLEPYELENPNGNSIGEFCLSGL

[7] = molecular target: T5, Corticotropin-releasing factor receptor 2/Corticotropin-releasing factor-binding protein; test: activators of CRF receptor 2 with binding protein – uHTS hits, confirmation (AID 602473); assay type: functional; details: read-out: EC50_Mean
[8] = NIH-3T3 fibroblast cytotoxicity, dose response, cytotoxicity control, cell-based, fluorescence, Alamar Blue, secondary assay (AID 2327); assay type: functional;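 note: NIH-3T3 mouse fibroblasts cultured with fluconazole at 8 µg/mL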

CCC(=O)N1CC2(C1)CN(Cc1cccc(Cl)c1)[C@H](CO)c1c2c2ccc(OC)cc2n1C
AC50 [1]: 10.5 µM (active)

Cc1ccc(C)c(-c2cc(C(=O)Nc3sc(C)c(C)c3C(N)=O)c3ccccc3n2)c1
EC50 (Streptococcus): > 150 µM (not active)
CC50 [2]: 9.97 µM (active)
EC50 [3]: 2.81 µM (active)
EC50 (Streptokinase A): 4.64 µM (active)
AC50 (Cytochrome P450 1A2): 3.16 µM (inconclusive)

CCOC(=O)c1c(C)[nH]c(C(=O)CN2CCN(CC)CC2)c1C
IC50 [4]: 60.6 µM (active)

CN(C)c1ccc(C=Cc2cnccn2)cc1
IC50 [4]: 38.6 µM (active)

CCOc1ccc(CNC(=O)c2cccc(NC(=O)C3=C(C)OCCS3)c2)cc1
EC50 [5]: > 260 µM (inactive)

Cc1ccccc1C(=O)Nc1ccc(N2CCCC2)cc1
IC50 [4]: 79.7 µM (active)

O=C(Cn1cc(C(F)(F)F)ccc1=O)N/N=C/c1ccc(O)cc1
IC50 [4]: 95.1 µM (active)

COc1cccc(CN2[C@@H](CO)[C@H](c3ccccc3)C23CN(C(=O)C2CCCC2)C3)c1
AC50 [1]: 5.77 µM (active)

COc1ccc(NS(=O)(=O)c2ccc(N3CCOCC3)c(NC(=O)C(C)C)c2)cc1
IC50 [6]: > 47.1 µM (inactive)
EC50 [7]: > 53 µM (inactive)

COc1ccc2c3c([nH]c2c1)[C@@H](CO)N(Cc1ccccc1Cl)CC31CCN(C(=O)C2CC2)CC1
AC50 [1]: 5.82 µM (active)

Cc1ccccc1[C@@]1(C)ON(c2ccccc2C(F)(F)F)C1=O
CC50 [2]: 21.9 µM (active)

O=C(CCn1c(=O)oc2ccccc21)Nc1ccccc1
EC50 [5]: > 260 µM (inactive)

COc1cccc(CN2[C@@H](CO)[C@H](c3ccccc3)C23CN(C(=O)C2CCOCC2)C3)c1
AC50 [1]: 7.03 µM (active)

CCC(=O)N1CCC2(CC1)CN(Cc1ccc(Cl)cc1)[C@H](CO)c1[nH]c3cc(OC)ccc3c12
AC50 [1]: 3.07 µM (active)

CCC1C(=NO)C(CC)C(c2ccccc2)NC1c1ccccc1 (centres undefined)
EC50 [5]: > 260 µM (inactive)
EC50 (Streptococcus): 11.8 µM (active)
EC50 [3]: 4.07 µM (active)
EC50 (Streptokinase A): 13.3 µM (active)

CO[C@H]1CN(C)C(=O)c2ccc(NC(=O)c3cccc(Oc4ccccc4)c3)cc2OC[C@@H](C)NC[C@H]1C
AC50 [1]: 7.72 µM (active)

O=C(NNc1cccc(Cl)n1)Nc1ccc(Cl)cc1
EC50 [5]: > 260 µM (inactive)

O=[N+]([O-])c1ccc(-c2csc(Nc3ccccc3)[n+]2Cc2ccccc2)cc1
EC50 [5]: 131 µM (active)

CC(C)NC(=O)N1CCCCN2[C@H](CO)[C@@H](c3ccc(C#C[C@H](C)O)cc3)[C@@H]2C1
AC50 [1]: 19.5 µM (active)

OC[C@H]1[C@@H](c2ccc(-c3cccnc3)cc2)[C@H]2CN(CC3CC3)CCCCN21
AC50 [1]: 6.52 µM (active)

Cc1ccc2c(c1)/C(=C/c1ccc(F)cc1)C(=O)N2
EC50 [5]: > 260 µM (inactive)

Cc1ccc(OCC(=O)N2CCN(CC3CC4C=CC3C4)CC2)cc1 (centres undefined)
IC50 [4]: 293 µM (active)

CCOc1cc(CNc2ccc3c(c2)OCCO3)cc(Br)c1OCC(N)=O
IC50 [4]: 99.3 µM (active)

c1ccc(-c2cc(-c3ccc(N4CCOCC4)cc3)nc3ccccc23)cc1
CC50 [2]: > 50 µM (active)

CN(C)CCCn1c(SCc2ccc(Cl)cc2)nnc1-c1ccncc1
IC50 [4]: 121 µM (active)

CCn1cc(C2=NC(c3ccccc3)CO2)c2ccccc21 (centres undefined)
CC50 [2]: 14.8 µM (active)

O=C(c1ccc(N2CCN(C3CC(=O)N(Cc4cccs4)C3=O)CC2)cc1)c1cccnc1 (centres undefined)
CC50 [2]: 24.4 µM (active)

Cc1ccc(-c2cnc3cc(C)nn3c2)cc1
EC50 [5]: > 260 µM (inactive)

Cc1cccc(NC(=O)CCc2c(C)nn(-c3ccc(N4CCCCC4)nn3)c2C)c1
EC50 [5]: > 260 µM (inactive)

C[C@H](CCC(=O)O)[C@H]1CC[C@H]2[C@@H]3CC[C@@H]4CC(=O)CC[C@]4(C)[C@H]3CC(=O)[C@]12C
EC50 [5]: > 260 µM (inactive)

COc1cc(/C=C/C(C)=NNc2ccccc2)ccc1O
IC50 [4]: 51.9 µM (active)

Cc1cccc(NC(=O)c2[nH]cnc2C(=O)N[C@@H](Cc2ccccc2)C(=O)OCc2ccccc2)c1
CC50 [2]: 46.3 µM (active)

Cc1ccc(-n2nc3c(=O)n(CCCC(=O)NCCc4ccccc4C)nc(C)c3c2C)cc1
CC50 [2]: > 50 µM (active)

CC(c1ccc(F)cc1)n1c(S)nnc1Cn1ncc2ccccc2c1=O (centres undefined)
EC50 [5]: > 260 µM (inactive)

COc1ccccc1C(=O)NCCCNC(=O)c1ccccn1
EC50 [5]: > 260 µM (inactive)

COC(=O)/C(C#N)=C/c1c(N2CCCCCC2)nc2c(C)cccn2c1=O
EC50 [5]: > 260 µM (inactive)

O=C(Nc1ccccn1)c1ccc2ccccc2c1O
IC50 [4]: 73 µM (active)

Cc1ccc(Cn2nnc3c(O)nc(C4CCN(S(=O)(=O)c5ccc(C)cc5)CC4)nc32)cc1
CC50 [2]: 13.6 µM (active)
EC50 [8]: > 150 µM (inactive)

CCOC(=O)N1CCC(/N=c2\c(O)c(O)\c2=N/c2cccc(CC)c2)CC1
CC50 [2]: 39.3 µM (active)

CNC[C@H]1Oc2ncc(-c3ccc(OC)cc3)cc2C(=O)N([C@H](C)CO)C[C@H]1C
AC50 [1]: 7.75 µM (active)
